Values of other authors in patent US10010615B2 (KemPharm, Inc., priority 2009, dated 2018).

Tests used:
human NET = human NET (Homo sapiens, UniProt P23975); details: relative to quetiapine
leptin = details: chronic oral administration for 6 weeks

human NET, sequence (P23975 whole entry): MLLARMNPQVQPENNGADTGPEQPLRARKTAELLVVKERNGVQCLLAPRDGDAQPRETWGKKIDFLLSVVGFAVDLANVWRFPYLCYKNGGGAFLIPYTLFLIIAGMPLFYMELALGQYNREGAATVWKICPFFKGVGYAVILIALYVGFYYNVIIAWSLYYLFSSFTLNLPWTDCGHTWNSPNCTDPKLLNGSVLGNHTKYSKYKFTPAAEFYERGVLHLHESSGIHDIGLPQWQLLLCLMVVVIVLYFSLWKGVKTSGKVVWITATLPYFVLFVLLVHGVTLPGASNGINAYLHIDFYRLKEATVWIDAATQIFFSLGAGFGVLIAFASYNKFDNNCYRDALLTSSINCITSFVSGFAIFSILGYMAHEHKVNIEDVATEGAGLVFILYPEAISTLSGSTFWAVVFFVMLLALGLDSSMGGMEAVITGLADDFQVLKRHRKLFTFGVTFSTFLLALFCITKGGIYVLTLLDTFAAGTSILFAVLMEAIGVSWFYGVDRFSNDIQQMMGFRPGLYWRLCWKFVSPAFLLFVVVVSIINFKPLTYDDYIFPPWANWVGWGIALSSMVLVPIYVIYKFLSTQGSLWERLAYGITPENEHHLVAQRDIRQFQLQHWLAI

Row | increase in leptin release (leptin) | Compound | higher avidity for inhibiting human NET than quetiapine (human NET)
1 |  | c1ccc2c(c1)N=C(N1CCNCC1)c1ccccc1S2 [N-desalkyl-quetiapine, 4-(dibenzo[b,f][1,4]thiazepin-11-yl)piperazine] | about 100 fold
2 | about 37% | OCCOCCN1CCN(C2=Nc3ccccc3Sc3ccccc32)CC1 [quetiapine, 2-(2-(4-(dibenzo[b,f][1,4]thiazepin-11-yl)piperazin-1-yl)ethoxy)ethanol] | 
